Data published in PubChem BioAssay AID248 (DTP/NCI, 2004).
“And” between values parts separate entries of the source, which are not always exact repeats. Equal entries are not always repeated. Inconclusive results and toxic doses are left out. No stated cut-off is given here; in the data, active means T/C of 150% or more; inactive means T/C below 125%.

Test system: L1210 leukemia ip in BDF1 mice, survival T/C
Assay: NCI In Vivo Anticancer Drug Screen. Data for tumor model L1210 Leukemia (intraperitoneal) in B6D2F1 (BDF1) mice
Conditions: endpoint: mean survival time, higher = longer survival
Outline: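 Mice bearing the transplanted tumor received compound or vehicle. Survival of the treated group was divided by that of the vehicle-treated control group to give the ratio.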

[1] = dose: 100.0 mg/kg/injection, schedule: Q01DX001 (ip), vehicle: Klucel (hydroxypropylcellulose) (HPC)
[2] = dose: 100.0 mg/kg/injection, schedule: Q04DX003 (ip), vehicle: Klucel (hydroxypropylcellulose) (HPC)
[3] = dose: 200.0 mg/kg/injection, schedule: Q01DX001 (ip), vehicle: Klucel (hydroxypropylcellulose) (HPC)
[4] = dose: 200.0 mg/kg/injection, schedule: Q04DX003 (ip), vehicle: Klucel (hydroxypropylcellulose) (HPC)
[5] = dose: 400.0 mg/kg/injection, schedule: Q04DX003 (ip), vehicle: Klucel (hydroxypropylcellulose) (HPC)
[6] = dose: 100.0 mg/kg/injection, schedule: Q04DX003 (ip), vehicle: saline with Tween-80
[7] = dose: 200.0 mg/kg/injection, schedule: Q04DX003 (ip), vehicle: saline with Tween-80
[8] = dose: 400.0 mg/kg/injection, schedule: Q04DX003 (ip), vehicle: saline with Tween-80
[9] = dose: 150.0 mg/kg/injection, schedule: Q01DX001 (ip), vehicle: saline
[10] = dose: 25.0 mg/kg/injection, schedule: Q04DX003 (ip), vehicle: saline
[11] = dose: 100.0 mg/kg/injection, schedule: Q01DX009 (ip), vehicle: Klucel (hydroxypropylcellulose) (HPC)
[12] = dose: 200.0 mg/kg/injection, schedule: Q01DX009 (ip), vehicle: Klucel (hydroxypropylcellulose) (HPC)
[13] = dose: 100.0 mg/kg/injection, schedule: Q01DX001 (ip), vehicle: saline

Measured: T/C

COC(=O)CC(Cc1cc(OC)ccc1OC)(C(=O)OC)C(=O)OC
inactive: dose: 12.5 mg/kg/injection, schedule: Q04DX003 (ip), vehicle: Klucel (hydroxypropylcellulose) (HPC) 102 % of control | dose: 25.0 mg/kg/injection, schedule: Q04DX003 (ip), vehicle: Klucel (hydroxypropylcellulose) (HPC) 94 % of control | dose: 50.0 mg/kg/injection, schedule: Q04DX003 (ip), vehicle: Klucel (hydroxypropylcellulose) (HPC) 98 % of control | [1] 106 % of control | [2] 105 % of control | [3] 97 % of control | [4] 103 % of control | dose: 400.0 mg/kg/injection, schedule: Q01DX001 (ip), vehicle: Klucel (hydroxypropylcellulose) (HPC) 98 % of control | [5] 105 % of control

N#CC(C#N)=C/C=C/C=C/c1c(Cl)cccc1Cl
inactive: [6] 92 % of control | [7] 103 % of control | [8] 105 % of control

c1cnc(OCCN2CC2)nc1
inactive: dose: 25.0 mg/kg/injection, schedule: Q01DX001 (ip), vehicle: carboxymethylcellulose (CMC) 93 % of control | dose: 50.0 mg/kg/injection, schedule: Q01DX001 (ip), vehicle: carboxymethylcellulose (CMC) 95 % of control

O=C(O)c1cc([N+](=O)[O-])ccc1Oc1cccc(Cl)c1
inactive: dose: 75.0 mg/kg/injection, schedule: Q01DX001 (ip), vehicle: saline 96 % of control | [9] 95 % of control | dose: 300.0 mg/kg/injection, schedule: Q01DX001 (ip), vehicle: saline 96 % of control

O=P(O)(O)OCC(O)CF (stereo not given)
inactive: dose: 2.5 mg/kg/injection, schedule: Q01DX009 (ip), vehicle: saline 89 % of control | dose: 5.0 mg/kg/injection, schedule: Q01DX009 (ip), vehicle: saline 93 % of control | dose: 10.0 mg/kg/injection, schedule: Q01DX009 (ip), vehicle: saline 94 % of control | dose: 44.0 mg/kg/injection, schedule: Q04DX003 (ip), vehicle: saline 109 % of control | dose: 88.0 mg/kg/injection, schedule: Q04DX003 (ip), vehicle: saline 100 % of control | dose: 115.5 mg/kg/injection, schedule: Q04DX003 (ip), vehicle: saline 96 % of control | dose: 175.0 mg/kg/injection, schedule: Q04DX003 (ip), vehicle: saline 92 % of control

O=C1NC(=O)C([N+](=O)[O-])C(=O)N1
inactive: dose: 12.5 mg/kg/injection, schedule: Q04DX003 (ip), vehicle: saline 104 % of control | [10] 95 % of control | dose: 50.0 mg/kg/injection, schedule: Q04DX003 (ip), vehicle: saline 93 % of control | dose: 200.0 mg/kg/injection, schedule: Q04DX003 (ip), vehicle: saline 98 % of control | dose: 400.0 mg/kg/injection, schedule: Q04DX003 (ip), vehicle: saline 91 % of control

CCN(CC)CCSc1nc2ccccc2[nH]1
inactive: dose: 55.0 mg/kg/injection, schedule: Q01DX Z (ip), vehicle: saline 104 % of control | dose: 83.0 mg/kg/injection, schedule: Q01DX Z (ip), vehicle: saline 91 % of control | dose: 125.0 mg/kg/injection, schedule: Q01DX Z (ip), vehicle: saline 94 % of control

CN1CCC(=C2c3ccccc3C=Cc3ccccc32)CC1
inactive: dose: 6.25 mg/kg/injection, schedule: Q01DX009 (ip), vehicle: saline 95 % of control | dose: 12.5 mg/kg/injection, schedule: Q01DX009 (ip), vehicle: saline 90 % of control | dose: 25.0 mg/kg/injection, schedule: Q01DX009 (ip), vehicle: saline 95 % of control | [10] 96 % of control | dose: 50.0 mg/kg/injection, schedule: Q01DX009 (ip), vehicle: saline 98 % of control | dose: 100.0 mg/kg/injection, schedule: Q04DX003 (ip), vehicle: saline 102 % of control

CC1CCCCN1Cc1ccccc1COC(=O)c1cccc(Br)c1 (stereo not given)
inactive: [1] 104 % of control | [3] 96 % of control

O=C(N/N=C/c1c(O)ccc2ccccc12)c1ccccc1
inactive: [11] 113 % of control | [12] 103 % of control | dose: 400.0 mg/kg/injection, schedule: Q01DX009 (ip), vehicle: Klucel (hydroxypropylcellulose) (HPC) 108 % of control

Cc1nnnn1-c1ccc([N+](=O)[O-])cc1
inactive: [6] 101 % of control | [7] 101 % of control | [8] 93 % of control

CC1=NN(c2ccc(S(=O)(=O)O)cc2)/C(=N/N=C(N)N)C1
inactive: dose: 15.0 mg/kg/injection, schedule: Q01DX Z (ip), vehicle: carboxymethylcellulose (CMC) 96 % of control | dose: 30.0 mg/kg/injection, schedule: Q01DX Z (ip), vehicle: carboxymethylcellulose (CMC) 96 % of control | dose: 60.0 mg/kg/injection, schedule: Q01DX Z (ip), vehicle: carboxymethylcellulose (CMC) 97 % of control and 100 % of control | dose: 120.0 mg/kg/injection, schedule: Q01DX Z (ip), vehicle: carboxymethylcellulose (CMC) 100 % of control and 102 % of control | dose: 240.0 mg/kg/injection, schedule: Q01DX Z (ip), vehicle: carboxymethylcellulose (CMC) 101 % of control | dose: 480.0 mg/kg/injection, schedule: Q01DX Z (ip), vehicle: carboxymethylcellulose (CMC) 97 % of control

O=C(Nc1ccccc1)OCCOc1ccc(Cl)cc1
inactive: dose: 100.0 mg/kg/injection, schedule: Q04DX002 (ip), vehicle: Klucel (hydroxypropylcellulose) (HPC) 88 % of control | dose: 200.0 mg/kg/injection, schedule: Q04DX002 (ip), vehicle: Klucel (hydroxypropylcellulose) (HPC) 95 % of control | dose: 400.0 mg/kg/injection, schedule: Q04DX002 (ip), vehicle: Klucel (hydroxypropylcellulose) (HPC) 95 % of control

CCOC(=O)CCN(Cc1ccccc1)C(COC)C(=O)OCC (stereo not given)
inactive: [13] 97 % of control | dose: 200.0 mg/kg/injection, schedule: Q01DX001 (ip), vehicle: saline 90 % of control | dose: 400.0 mg/kg/injection, schedule: Q01DX001 (ip), vehicle: saline 101 % of control

CCOC(=O)c1[nH]nc(CC)c1O
inactive: dose: 50.0 mg/kg/injection, schedule: Q04DX003 (ip), vehicle: gum acacia 110 % of control | dose: 100.0 mg/kg/injection, schedule: Q01DX009 (ip), vehicle: gum acacia 96 % of control | dose: 100.0 mg/kg/injection, schedule: Q04DX003 (ip), vehicle: gum acacia 98 % of control | dose: 200.0 mg/kg/injection, schedule: Q01DX009 (ip), vehicle: gum acacia 92 % of control | dose: 200.0 mg/kg/injection, schedule: Q04DX003 (ip), vehicle: gum acacia 103 % of control | dose: 400.0 mg/kg/injection, schedule: Q01DX009 (ip), vehicle: gum acacia 105 % of control | dose: 400.0 mg/kg/injection, schedule: Q04DX003 (ip), vehicle: gum acacia 108 % of control

S=P(c1cccs1)(c1cccs1)c1cccs1
inactive: [6] 93 % of control | [7] 96 % of control | [8] 86 % of control

CCCCN(CCCC)CC(O)c1ccc2cc(Cl)cc(Cl)c2n1 (stereo not given)
inactive: dose: 6.25 mg/kg/injection, schedule: Q01DX009 (ip), vehicle: saline with Tween-80 94 % of control | dose: 6.25 mg/kg/injection, schedule: Q04DX003 (ip), vehicle: saline with Tween-80 98 % of control | dose: 12.5 mg/kg/injection, schedule: Q01DX009 (ip), vehicle: saline with Tween-80 98 % of control | dose: 12.5 mg/kg/injection, schedule: Q04DX003 (ip), vehicle: saline with Tween-80 95 % of control | dose: 25.0 mg/kg/injection, schedule: Q01DX009 (ip), vehicle: saline with Tween-80 98 % of control | dose: 25.0 mg/kg/injection, schedule: Q04DX003 (ip), vehicle: saline with Tween-80 95 % of control

O=C(Nc1cccnc1)Nc1ccc(Cl)c(Cl)c1
inactive: [2] 98 % of control | [4] 93 % of control | [5] 94 % of control

O=C(O)c1ccc2c3c(ccc(C(=O)O)c13)CC2
inactive: [13] 104 % of control

C[n+]1cccc(SC2CCC3CC4CC3C2C4)c1 (stereo not given)
inactive: dose: 50.0 mg/kg/injection, schedule: Q01DX009 (ip), vehicle: saline with Tween-80 91 % of control

O=C(O)/C=C/C(=O)NCc1ccco1
inactive: dose: 100.0 mg/kg/injection, schedule: Q01DX009 (ip), vehicle: saline with Tween-80 98 % of control | dose: 200.0 mg/kg/injection, schedule: Q01DX009 (ip), vehicle: saline with Tween-80 96 % of control | dose: 400.0 mg/kg/injection, schedule: Q01DX009 (ip), vehicle: saline with Tween-80 101 % of control

O=C(Nc1cccc(C(F)(F)F)c1)Oc1ccccc1F
inactive: [11] 91 % of control | [12] 92 % of control

CC/C=C(\C)C1(CC)C(=O)N=C(N)NC1=O (stereo not given)
inactive: [9] 105 % of control
